This passage reports GI50 and TGI results from PubChem BioAssay (NCI).

SMILES strings stand for the structures. Several values for one entry are separate records, joined by “and”; a condition that tells them apart may be missing. Equal values may be shown once.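 Five compound concentrations were applied to cells in 96-well plates for 48 hours; endpoints were derived by simple linear interpolation of the resulting dose-response curve. Abbreviation: GI50, concentration required for 50% inhibition of growth. TGI is the concentration that stops growth completely.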

The first test deals with SK-MEL-5 melanoma. The test is described as follows: NCI-60 cell line screen, 48 h.
For the compound `Nc1cc(N)c2nc(-c3ccccc3)c(Oc3ccc(F)cc3)nc2c1`, the GI50 is 12.2 µM and the TGI was determined as 31.8 µM.

With `COc1ccc(-c2cc(-c3ccc(Cl)cc3)c(C#N)c(=O)n2CCCCC(=O)Nc2ccccc2N)cc1`, the GI50 was 2.05 µM and the TGI was found to be 4.48 µM.

For the compound `CN1CCCN(CCNc2nccc(-c3c(-c4cccc(O)c4)nc4sccn34)n2)S1(=O)=O`, the GI50 is 1.17 µM and 1.23 µM; the TGI is 11.2 µM and 13.8 µM.

Regarding `CCOC(=O)c1c(NC(=O)c2ccc(C(C)C)cc2)sc2c(CN(C)C)c(O)ccc12`, the GI50 was 1.73 µM and the TGI was 3.11 µM.

As to `COc1ccc(C(=O)N2c3ccccc3Sc3ccccc32)c(F)c1`, the GI50 is 0.759 µM and the TGI turned out to be 22.5 µM.

Take `CC1(C)N=C(N)N=C(N)N1c1ccc(CCc2ccccc2)c(Cl)c1`: the GI50 is 0.124 µM and the TGI stood at 1.33 µM.

For `Cc1ccc(C(=O)Nc2ccc(CN3CCN(C)CC3)c(C(F)(F)F)c2)cc1C#Cc1cnc(N)c2ccc(F)cc12`, the GI50 was 0.805 µM and the TGI came to 2.18 µM.

Compound `CC1(C)CCC(C)(C)c2cc(C(=O)Nc3ccc(C(=O)O)cc3)ccc21` registered a TGI of more than 56 µM.

In a further test the test system is U251 CNS. The test is described as follows: NCI-60 cell line screen, 48 h.
Turning to `CSc1ccc(C2=Nn3c(nnc3-c3ccc(F)c(Cl)c3)SC2)cc1`, the GI50 is 3.85 µM and the TGI was determined as 13.8 µM.

Regarding `CNC(=O)Nc1ccc(-c2nc(N3CCOCC3)nc3c2cnn3C2CCOCC2)cc1`, the GI50 is 0.258 µM and the TGI was more than 38.6 µM.

Consider `NCCCCNCCCNC(=O)CNC(=O)CC(O)C(N)CCCC(NC(=O)C(CN)NC(=O)C(O)CNC(=O)CC(N)c1ccc(O)cc1)C(=O)O` (configuration not stated), for which the TGI was more than 10 µM.

Regarding `N/C(=N\OC(=O)c1ccccc1)C(C(=O)NOC(=O)c1ccccc1)C1CCCCC1` (configuration not stated), the GI50 was 1.78 µM and the TGI was 3.87 µM.

`CCOc1ccc(N=Nc2ccc3cc(/C(C)=N/NC(=O)/C(C#N)=C\c4ccc(N(CCC#N)CCC#N)cc4)c(=O)oc3c2)cc1` registered a TGI of more than 10 µM.

For `O=C(O)c1cc[c]([Hg][S]c2ncnc3nc[nH]c23)cc1`, the GI50 was 14.4 µM and the TGI is 28.2 µM.

Turning to `CC(C)(C)OC(=O)NCC(C#N)CNC(=O)OC(C)(C)C`, the TGI is more than 100 µM.

Consider `O=C(Nc1ccc(OC(F)(F)F)cc1)c1sccc1NCc1ccnc2ccccc12`, for which the GI50 was 6.92 µM and the TGI was more than 100 µM.

For `CCN(CC)c1ccc(NC(=S)NN(C)C)cc1`, the TGI is more than 10 µM.

With `Nc1cc(N)c2nc(-c3ccccc3)c(Oc3ccc(F)cc3)nc2c1`, the GI50 is 23.2 µM and the TGI was found to be 78.6 µM.

Take `COc1ccc(-c2cc(-c3ccc(Cl)cc3)c(C#N)c(=O)n2CCCCC(=O)Nc2ccccc2N)cc1`: the GI50 was 7.97 µM and the TGI is more than 100 µM.

In the case of `CN1CCCN(CCNc2nccc(-c3c(-c4cccc(O)c4)nc4sccn34)n2)S1(=O)=O`, the GI50 is 8.99 µM and 11.9 µM; the TGI is 50.4 µM and > 51.1 µM.

As for `CCOC(=O)c1c(NC(=O)c2ccc(C(C)C)cc2)sc2c(CN(C)C)c(O)ccc12`, the GI50 is 2.59 µM and the TGI came out at 7.13 µM.

For `COc1ccc(C(=O)N2c3ccccc3Sc3ccccc32)c(F)c1`, the GI50 was 0.615 µM and the TGI was more than 100 µM.

Turning to `CC1(C)N=C(N)N=C(N)N1c1ccc(CCc2ccccc2)c(Cl)c1`, the GI50 was 0.0427 µM and the TGI came out at 13 µM.

In the case of `Cc1ccc(C(=O)Nc2ccc(CN3CCN(C)CC3)c(C(F)(F)F)c2)cc1C#Cc1cnc(N)c2ccc(F)cc12`, the GI50 was 0.275 µM and the TGI came to 0.717 µM.

Regarding `CC1(C)CCC(C)(C)c2cc(C(=O)Nc3ccc(C(=O)O)cc3)ccc21`, the TGI is more than 100 µM.

For the next test, the system named is OVCAR-3 ovarian. The test is described as follows: NCI-60 cell line screen, 48 h.
Consider `CSc1ccc(C2=Nn3c(nnc3-c3ccc(F)c(Cl)c3)SC2)cc1`, for which the GI50 was 5.62 µM and the TGI is 21 µM.

In the case of `CNC(=O)Nc1ccc(-c2nc(N3CCOCC3)nc3c2cnn3C2CCOCC2)cc1`, the GI50 is 0.21 µM.

In turn, `NCCCCNCCCNC(=O)CNC(=O)CC(O)C(N)CCCC(NC(=O)C(CN)NC(=O)C(O)CNC(=O)CC(N)c1ccc(O)cc1)C(=O)O` (configuration not stated) gave a TGI of more than 10 µM.

Take `N/C(=N\OC(=O)c1ccccc1)C(C(=O)NOC(=O)c1ccccc1)C1CCCCC1` (configuration not stated): the GI50 was 4.56 µM and the TGI was 15.9 µM.

In turn, `CCOc1ccc(N=Nc2ccc3cc(/C(C)=N/NC(=O)/C(C#N)=C\c4ccc(N(CCC#N)CCC#N)cc4)c(=O)oc3c2)cc1` registered a TGI of more than 10 µM.

On to `O=C(O)c1cc[c]([Hg][S]c2ncnc3nc[nH]c23)cc1`, for which the GI50 is 1.88 µM and the TGI worked out at 19.9 µM.

In turn, `CC(C)(C)OC(=O)NCC(C#N)CNC(=O)OC(C)(C)C` came in with a TGI of more than 100 µM.

As for `O=C(Nc1ccc(OC(F)(F)F)cc1)c1sccc1NCc1ccnc2ccccc12`, the GI50 was 4.89 µM and the TGI is more than 100 µM.

The compound `CCN(CC)c1ccc(NC(=S)NN(C)C)cc1` yielded a TGI of more than 10 µM.

On to `Nc1cc(N)c2nc(-c3ccccc3)c(Oc3ccc(F)cc3)nc2c1`, for which the GI50 is 15.4 µM and the TGI turned out to be 41.7 µM.

With `COc1ccc(-c2cc(-c3ccc(Cl)cc3)c(C#N)c(=O)n2CCCCC(=O)Nc2ccccc2N)cc1`, the GI50 was 13.5 µM and the TGI worked out at 56.6 µM.

As to `CN1CCCN(CCNc2nccc(-c3c(-c4cccc(O)c4)nc4sccn34)n2)S1(=O)=O`, the GI50 is 13.7 µM and 7.69 µM; the TGI was 75 µM and 99 µM.

On to `CCOC(=O)c1c(NC(=O)c2ccc(C(C)C)cc2)sc2c(CN(C)C)c(O)ccc12`, for which the GI50 was 3.52 µM and the TGI is 11.9 µM.

With `COc1ccc(C(=O)N2c3ccccc3Sc3ccccc32)c(F)c1`, the GI50 is 0.418 µM and the TGI was more than 100 µM.

Take `CC1(C)N=C(N)N=C(N)N1c1ccc(CCc2ccccc2)c(Cl)c1`: the GI50 was 0.281 µM and the TGI is 12.4 µM.

As for `Cc1ccc(C(=O)Nc2ccc(CN3CCN(C)CC3)c(C(F)(F)F)c2)cc1C#Cc1cnc(N)c2ccc(F)cc12`, the GI50 is 0.359 µM and the TGI came out at 1.06 µM.

As for `CC1(C)CCC(C)(C)c2cc(C(=O)Nc3ccc(C(=O)O)cc3)ccc21`, the TGI turned out to be 40.4 µM.
